Source: US7030157B2, “Pharmaceutical compositions, kits and methods comprising combinations of estrogen agonists/antagonists, estrogens and progestins” (priority 2001, dated 2006)
Entries after “also recorded” stand apart in the source; their conditions may differ.

Tests used:
estrogen receptor α = estrogen receptor α (Homo sapiens, UniProt P03372); details: previously reported; similar to the binding of estradiol; cited from earlier work
[1] = tested on: uterine cancer cell lines; details: previously reported; cited from earlier work
breast cancer = details: previously reported; cited from earlier work
uterus of OVX rats = experiment: Uterine wet weight in OVX rats
Method: (§1) Sprague-Dawley female rats at 5.5 months of age were used in this study. Rats underwent either sham-operation or bilateral ovariectomy. Beginning at 1 day post-surgery, the rats were treated (daily gavage) with vehicle, 17α-ethanyl estradiol (EE) alone, lasofoxifene (LAS) alone, or combination of both EE and LAS for 28 days, according to the following protocol.
(§2) There were 10 rats in each group. All rats received subcutaneous injections of the fluorescent marker, calcein, at 10 mg/kg on days 12 and 2 before necropsy in order to determine dynamic bone changes. After 28 days of treatment, the rats were necropsy, and the following endpoints were determined. • Body weight • Total serum cholesterol (TSC) • Uterine wet weight • Peripheral quantitative computerized tomography (pQCT). A pQCT X-ray machine (Stratec XCT Reasearch M, Norland Medical Systems, Fort Atkinson, Wis.) with version 5.40 was used to scan femurs from this study. […] Cortical bone was defined and analyzed using contour mode 2 and cortical mode 4. […] Furthermore, cortical bone along the endocortical surface was determined with an inner threshold of 529 mg/cm^3. […] For trabecular and cortical bone, content, density and area were determined. […]
(§3) Statistics were calculated using StatView 4.0 software (Abacus Concepts, Inc., Berkeley, Calif.). […]

OVX-induced bone loss = experiment: pQCT of the distal femur in OVX rats; format: in vivo, Sprague-Dawley female rats; details: for pQCT cortical content, distal femur / pQCT total density, distal femur: daily gavage 28 days, EE 0.03 mg/kg, LAS 0.1 mg/kg; for OVX-induced bone loss: fully efficacious doses (EE 0.03 mg/kg, LAS 0.1 mg/kg), 28 days
Method: as §1
(§4) There were 10 rats in each group. All rats received subcutaneous injections of the fluorescent marker, calcein, at 10 mg/kg on days 12 and 2 before necropsy in order to determine dynamic bone changes. After 28 days of treatment, the rats were necropsy, and the following endpoints were determined. • Body weight • Total serum cholesterol (TSC) • Uterine wet weight • Peripheral quantitative computerized tomography (pQCT). A pQCT X-ray machine (Stratec XCT Reasearch M, Norland Medical Systems, Fort Atkinson, Wis.) with version 5.40 was used to scan femurs from this study. A cross sectional slice 1 mm in thickness was taken of the femoral metaphysis approximately 5 mm proximal to the distal end. A voxel size of 0.10 mm was used, with dimensions of 100×100×1000 micometers. Cortical bone was defined and analyzed using contour mode 2 and cortical mode 4. The cortical shell was distinguished from soft tissue with an outer threshold setting of 349 mg/cm^3. Furthermore, cortical bone along the endocortical surface was determined with an inner threshold of 529 mg/cm^3. In order to determine the presence of trabecular bone, peel mode 4 was used. (Sub)Cortical bone was distinguished from cancellous bone with a threshold setting of 655 mg/cm^3. An additional concentric peel was also used to eliminate (sub)cortical bone from any analyses. For trabecular and cortical bone, content, density and area were determined. […] Tibiae were removed upon necropsy and removed of tissue. The proximal portion of the tibia was fixed in 70% ethanol, dehydrated in graded concentrations of ethanol, defatted in acetone, and embedded in methyl methacrylate. Four and ten μm sections were taken to determine several histomorphometric parameters with an Image Analysis System (Osteomeasure, Inc., Atlanta, Ga.). The 10 μm remained unstained while the 4 μm section was stained with modified Masson's Trichrome stain (5,6,7). Statistics
(§5) Statistics were calculated using StatView 4.0 software (Abacus Concepts, Inc., Berkeley, Calif.). Fisher's PLSD was used to determine the differences between each group. A p value<0.05 was considered a significant difference.

estrogen receptor β = estrogen receptor β (Homo sapiens, UniProt Q92731); details: previously reported; similar to the binding of estradiol; cited from earlier work
[2] = Total serum cholesterol (TSC) in OVX rats; format: in vivo, Sprague-Dawley female rats; details: daily gavage 28 days, EE 0.03 mg/kg, LAS 0.1 mg/kg
Method: as §1, §2, §3

[3] = tested on: OVX-induced bone resorption and bone turnover; experiment: Dynamic histomorphometry of the proximal tibial metaphysis in OVX rats; format: in vivo, Sprague-Dawley female rats; details: daily gavage 28 days, EE 0.03 mg/kg, LAS 0.1 mg/kg
Method: as §1, §4, §5

Chain of estrogen receptor β (Q92731 whole entry): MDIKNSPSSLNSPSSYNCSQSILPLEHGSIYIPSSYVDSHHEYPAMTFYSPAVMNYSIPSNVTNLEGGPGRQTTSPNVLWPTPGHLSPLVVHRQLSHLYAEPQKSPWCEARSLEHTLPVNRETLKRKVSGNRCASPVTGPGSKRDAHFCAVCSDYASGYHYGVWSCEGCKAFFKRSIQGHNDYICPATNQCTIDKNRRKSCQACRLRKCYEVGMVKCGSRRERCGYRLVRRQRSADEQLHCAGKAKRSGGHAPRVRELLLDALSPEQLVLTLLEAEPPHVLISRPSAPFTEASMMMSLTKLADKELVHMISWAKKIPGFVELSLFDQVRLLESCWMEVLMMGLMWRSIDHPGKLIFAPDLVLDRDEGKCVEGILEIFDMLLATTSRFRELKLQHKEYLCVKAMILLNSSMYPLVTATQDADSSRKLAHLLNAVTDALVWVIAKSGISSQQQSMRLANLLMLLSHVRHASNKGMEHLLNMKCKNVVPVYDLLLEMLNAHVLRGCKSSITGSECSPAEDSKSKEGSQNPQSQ
Chain of estrogen receptor α (P03372 whole entry): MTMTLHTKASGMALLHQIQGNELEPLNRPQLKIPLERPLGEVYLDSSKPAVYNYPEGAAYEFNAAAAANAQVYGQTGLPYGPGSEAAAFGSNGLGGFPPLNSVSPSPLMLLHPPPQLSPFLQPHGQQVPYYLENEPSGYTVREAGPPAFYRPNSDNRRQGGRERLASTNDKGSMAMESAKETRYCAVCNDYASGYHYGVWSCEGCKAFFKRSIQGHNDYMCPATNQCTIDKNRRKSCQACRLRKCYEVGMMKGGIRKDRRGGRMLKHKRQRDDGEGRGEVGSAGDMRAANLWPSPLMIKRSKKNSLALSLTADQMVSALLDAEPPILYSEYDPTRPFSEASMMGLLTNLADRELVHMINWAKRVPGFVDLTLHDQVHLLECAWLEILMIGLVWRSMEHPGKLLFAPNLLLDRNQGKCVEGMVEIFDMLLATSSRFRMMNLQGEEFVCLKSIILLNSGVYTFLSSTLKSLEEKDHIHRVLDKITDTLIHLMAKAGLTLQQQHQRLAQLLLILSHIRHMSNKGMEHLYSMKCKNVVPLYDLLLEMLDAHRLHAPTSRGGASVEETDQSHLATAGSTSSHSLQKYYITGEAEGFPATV

O=C(O)C(O)C(O)C(=O)O.Oc1ccc2c(c1)CC[C@H](c1ccccc1)[C@@H]2c1ccc(OCCN2CCCC2)cc1 [LAS, (−)-cis-6-phenyl-5-[4-(2-pyrrolidin-1-yl-ethoxy)-phenyl]-5,6,7,8-tetrahydro-naphthalene-2-ol, tartrate salt]
binding to estrogen receptor α (estrogen receptor α): bound selectively and with high affinity | proliferation of uterine cancer cell lines in vitro [1]: antagonizes the proliferation | proliferation of breast cancer in vivo (breast cancer): antagonizes the proliferation | effect of LAS on the uterine effects of EE on co-administration (uterus of OVX rats; EE 0.03 mg/kg + LAS 0.1 mg/kg, 28 days, tartrate salt): blocked the agonistic effects of EE in the uterus of OVX rats; also recorded: antagonized the uterine hypertrophy effects induced by EE | pQCT cortical content, distal femur (OVX-induced bone loss): completely prevented the OVX-induced decrease | pQCT total density, distal femur (OVX-induced bone loss): completely prevented the OVX-induced decrease | OVX-induced bone loss (OVX-induced bone loss): completely prevented OVX-induced bone loss | binding to estrogen receptor β (estrogen receptor β): bound selectively and with high affinity | total serum cholesterol (TSC) ([2]; tartrate salt): prevented the OVX-induced increase in TSC; also recorded: significantly decreased TSC to a level below both sham controls and rats treated with EE | bone formation rate (BFR/BS) [3]: completely prevented these changes | mineral apposition rate (MAR) [3]: completely prevented these changes | mineralizing surface (MS/BS) [3]: completely prevented these changes | osteoclast number (Oc.N/BS) [3]: completely prevented these changes | osteoclast surface (Oc.S/BS) [3]: completely prevented these changes

C#C[C@]1(O)CC[C@H]2[C@@H]3CCc4cc(O)ccc4[C@H]3CC[C@@]21C [EE, 17α-ethanyl estradiol, reference compound]
uterine wet weight (uterus of OVX rats; daily gavage 28 days, EE 0.03 mg/kg, LAS 0.1 mg/kg): maintained the uterine wet weight at the level of sham controls | pQCT cortical content, distal femur (OVX-induced bone loss): completely prevented the OVX-induced decrease | pQCT total density, distal femur (OVX-induced bone loss): completely prevented the OVX-induced decrease | OVX-induced bone loss (OVX-induced bone loss): completely prevented OVX-induced bone loss | total serum cholesterol (TSC) [2]: completely prevented this increase | bone formation rate (BFR/BS) [3]: completely prevented these changes | mineral apposition rate (MAR) [3]: completely prevented these changes | mineralizing surface (MS/BS) [3]: completely prevented these changes | osteoclast number (Oc.N/BS) [3]: completely prevented these changes | osteoclast surface (Oc.S/BS) [3]: completely prevented these changes
